Laboratory results: patent US10064913B2, “Immunotherapy against several tumors including gastrointestinal and gastric cancer” (IMMATICS BIOTECHNOLOGIES GMBH, priority 2010, dated 2018)

Columns and labels:
CD8+ T cells [1] = experiment: In vitro immunogenicity of HLA-A*2402 restricted TUMAPs (aAPC priming of CD8+ T cells, multimer staining); assay type: cell-based, human; conditions: HLA-A*2402 peptides, CD8+ T cells of healthy HLA-A*24 donors, three stimulation cycles with pMHC/anti-CD28 beads; for Wells positive/evaluable [%]: at least 48 wells evaluable; for Donors positive/evaluable [%]: at least four donors evaluable
From the text: (§1) In order to perform in vitro stimulations by artificial antigen presenting cells (aAPC) loaded with peptide-MHC complex (pMHC) and anti-CD28 antibody, we first isolated CD8 T cells from fresh HLA-A*24 leukapheresis products or from HLA-A*2 buffy coats of healthy donors obtained from the Blood Bank Tuebingen.
(§2) CD8 T cells were either directly enriched or PBMCs (peripheral blood mononuclear cells) were isolated first by using standard gradient separation medium (PAA, Colbe, Germany). Isolated CD8 lymphocytes or PBMCs were incubated until use in T-cell medium (TCM) consisting of RPMI-Glutamax (Invitrogen, Karlsruhe, Germany) supplemented with 10% heat inactivated human AB serum (PAN-Biotech, Aidenbach, Germany), 100 U/ml Penicillin/100 μg/ml Streptomycin (Cambrex, Cologne, Germany), 1 mM sodium pyruvate (CC Pro, Oberdorla, Germany), 20 μg/ml Gentamycin (Cambrex). […] Isolation of CD8+ lymphocytes was performed by positive selection using CD8 MicroBeads (Miltenyi Biotec, Bergisch-Gladbach, Germany).
(§3) 800.000 beads/200 μl were coated in 96-well plates in the presence of 600 ng biotin-anti-CD28 plus 200 ng relevant biotin-pMHC (high density beads). […] Half of the medium was then exchanged by fresh TCM supplemented with 80 U/ml IL-2 and incubation was continued for 3-4 days at 37° C. This stimulation cycle was performed for a total of three times.
(§4) In vitro priming of specific multimer+CD8+ lymphocytes was detected by appropriate gating and by comparing to negative control stimulations.

[2] = peptide included in vaccines IMA901 and IMA910, described in other applications by immatics; cited from earlier work
CD8+ T cells [3] = experiment: In vitro immunogenicity of HLA-A*0201 restricted TUMAPs (aAPC priming of CD8+ T cells, multimer staining); assay type: cell-based, human; conditions: HLA-A*0201 peptides, CD8+ T cells from HLA-A*2 buffy coats of healthy donors, three stimulation cycles
From the text: as §1, §2, §3, §4

| Sequence | Wells positive/evaluable [%] (CD8+ T cells [1]) | Donors positive/evaluable [%] (CD8+ T cells [1]) | in vivo reactions [2] | Donors positive/evaluable [%] (CD8+ T cells [3]) | Wells positive/evaluable [%] (CD8+ T cells [3]) |
| --- | --- | --- | --- | --- | --- |
| RYLPKGFLNQF (listed as Homo sapiens) [PTK2-001] | 4 | 17 | – | – | – |
| RYLPQCSYF (listed as Homo sapiens) [CCND2-001] | 10 | 17 | – | – | – |
| RYLWATVTI (listed as Homo sapiens) [ASPM-001] | 3 | 17 | – | – | – |
| SYATLLHVL (listed as Homo sapiens) [GPR39-001] | 6 | 50 | – | – | – |
| SYIDVLPEF (listed as Homo sapiens) [MET-006] | 21 | 67 | – | – | – |
| SYIIDPLNL (listed as Homo sapiens) [PROM1-001] | 26 | 83 | – | – | – |
| SYLELVKSL (listed as Homo sapiens) [SDHC-001] | 3 | 33 | – | – | – |
| SYLQAANAL (listed as Homo sapiens) [COL6A3-001] | 0 | 0 | – | – | – |
| SYNPLWLRI (listed as Homo sapiens) [ASPM-002] | 32 | 67 | – | – | – |
| SYNVTSVLF (listed as Homo sapiens) [LCN2-001] | 1 | 17 | – | – | – |
| SYQKVIELF (listed as Homo sapiens) [PBK-001] | 0 | 0 | – | – | – |
| TYGNLLDYL (listed as Homo sapiens) [ABL1-001] | 18 | 83 | – | – | – |
| VFDTAIAHLF (listed as Homo sapiens) [SIAH2-001] | 8 | 50 | – | – | – |
| VFIFKGNQF (listed as Homo sapiens) [MMP3-001] | 1 | 11 | – | – | – |
| VWSDVTPLTF (listed as Homo sapiens) [MMP11-001] | 11 | 33 | – | – | – |
| VYFSKSEQL (listed as Homo sapiens) [EPHA2-005] | 0 | 0 | – | – | – |
| VYGIRLEHF (listed as Homo sapiens) [NUF2-001] | 50 | 100 | – | – | – |
| VYIEKNDKL (listed as Homo sapiens) [ERBB3-001] | – | 83 | – | – | – |
| VYISSLALL (listed as Homo sapiens) [PSMD14-001] | 1 | 17 | – | – | – |
| VYKVVGNLL (listed as Homo sapiens) [IQGAP3-001] | 24 | 100 | – | – | – |
| VYLLNSTTL (listed as Homo sapiens) [CLCN3-001] | 6 | 33 | – | – | – |
| VYNPTPNSL (listed as Homo sapiens) [COL12A1-001] | 0 | 0 | – | – | – |
| VYPNWAIGL (listed as Homo sapiens) [SLC6A6-001] | 1 | 17 | – | – | – |
| VYTTMAEHF (listed as Homo sapiens) [TSPAN1-002] | 1 | 17 | – | – | – |
| VYTTSYQQI (listed as Homo sapiens) [NFYB-001] | 7 | 50 | – | – | – |
| YVDPVITSI (listed as Homo sapiens) [MET-001] | – | – | extremely good in vivo reactions | 67 | 42 |
| YYKNIGLGF (listed as Homo sapiens) [RPS11-001] | 3 | 17 | – | – | – |
| YYNAAGFNKL (listed as Homo sapiens) [UQCRB-001] | 24 | 83 | – | – | – |
| YYYVGFAYL (listed as Homo sapiens) [EIF3L-001] | 29 | 100 | – | – | – |
